In the supplement of paper PMC11451515:

Key:
Conditions in all cases: 48 h
SEM cells [1] = assay: AUC of viability dose-response curve (% viability x log10 dose units); higher = less sensitive
Summary of the method: (§1)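 Leukemia cells adapted to each medium were seeded in 1536-well plates (500 or 1000 cells/well) and given library compounds in DMSO for 48 h at 37°C. The 11 threefold doses spanned 47 μM to 0.79 nM, and CellTiter-Glo One luminescence was normalised per plate to DMSO and cell-free wells before four-parameter log-logistic fitting on log10 dose. Area under the curve was integrated with the trapezoidal rule, scaling curves above full viability and removing curves that failed quality control.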

P12-Ichikawa [2] = assay: as above
Summary of the method: as §1

NOMO1 [3] = assay: as above
Summary of the method: as §1

SEM cells [4] = assay: cell viability relative to DMSO control; higher = less cytotoxic
Summary of the method: (§2)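 Viability was expressed as a per-plate percentage of DMSO wells, with cell-free wells as background. Leukemia cells (NOMO1 or SEM at 500 cells/well, P12-Ichikawa at 1000 cells/well) were adapted for at least four passages in each medium and seeded in 1536-well plates (5 μl). Library compounds in DMSO were pin-dosed over an 11-point threefold series from 47 μM to 0.79 nM, and CellTiter-Glo One luminescence was read after 48 h at 37°C.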

P12-Ichikawa [5] = assay: as above
Summary of the method: as §2

NOMO1 [6] = assay: as above
Summary of the method: as §2

CN(C)CC[C@H](c1ccc(Cl)cc1)c1ccccn1
AUC of viability dose-response curve
Conditions | NOMO1 [3] | P12-Ichikawa [2] | SEM cells [1]
HPLM + 10% dialyzed FBS | 378 | 413 | 376
RPMI 5 mM glucose + 10% FBS | 382 | 388 | 438
RPMI 5 mM glucose + 10% dialyzed FBS | 412 | 379 | 414

cell viability [%]
Conditions | NOMO1 [6] | P12-Ichikawa [5] | SEM cells [4]
HPLM + 10% dialyzed FBS, 0.000781 µM | 70.4 | 83.7 | 70.8
HPLM + 10% dialyzed FBS, 0.00234 µM | 74 | 78.9 | 72.6
HPLM + 10% dialyzed FBS, 0.00702 µM | 78.8 | 84.2 | 79.4
HPLM + 10% dialyzed FBS, 0.0211 µM | 77.9 | 84.8 | 78.8
HPLM + 10% dialyzed FBS, 0.0632 µM | 75.7 | 90.7 | 86.1
HPLM + 10% dialyzed FBS, 0.19 µM | 77.9 | 90.3 | 73.7
HPLM + 10% dialyzed FBS, 0.569 µM | 88.3 | 85.8 | 82.2
HPLM + 10% dialyzed FBS, 1.71 µM | 79.7 | 90.9 | 75.2
HPLM + 10% dialyzed FBS, 5.12 µM | 81 | 87.1 | 89.5
HPLM + 10% dialyzed FBS, 15.4 µM | 78.8 | 86 | 83.8
HPLM + 10% dialyzed FBS, 46.1 µM | 87.1 | 89.7 | 72.3
RPMI 5 mM glucose + 10% FBS, 0.000781 µM | 75 | 76.9 | 80.6
RPMI 5 mM glucose + 10% FBS, 0.00234 µM | 76.5 | 78 | 74.3
RPMI 5 mM glucose + 10% FBS, 0.00702 µM | 77.1 | 75.6 | 91
RPMI 5 mM glucose + 10% FBS, 0.0211 µM | 80.3 | 78.9 | 92.4
RPMI 5 mM glucose + 10% FBS, 0.0632 µM | 81.4 | 80.8 | 88.6
RPMI 5 mM glucose + 10% FBS, 0.19 µM | 81.2 | 80.8 | 95.3
RPMI 5 mM glucose + 10% FBS, 0.569 µM | 80.7 | 90.4 | 100
RPMI 5 mM glucose + 10% FBS, 1.71 µM | 79.6 | 85.2 | 87.2
RPMI 5 mM glucose + 10% FBS, 5.12 µM | 83.2 | 84.1 | 101
RPMI 5 mM glucose + 10% FBS, 15.4 µM | 79.9 | 81.2 | 92.7
RPMI 5 mM glucose + 10% FBS, 46.1 µM | 83.7 | 82.3 | 101
RPMI 5 mM glucose + 10% dialyzed FBS, 0.000781 µM | 74 | 69.9 | 78.9
RPMI 5 mM glucose + 10% dialyzed FBS, 0.00234 µM | 88.2 | 81.6 | 83.4
RPMI 5 mM glucose + 10% dialyzed FBS, 0.00702 µM | 83.1 | 73.6 | 82.4
RPMI 5 mM glucose + 10% dialyzed FBS, 0.0211 µM | 85.9 | 83.9 | 86
RPMI 5 mM glucose + 10% dialyzed FBS, 0.0632 µM | 81.5 | 86.2 | 87.1
RPMI 5 mM glucose + 10% dialyzed FBS, 0.19 µM | 86.5 | 80.9 | 95.4
RPMI 5 mM glucose + 10% dialyzed FBS, 0.569 µM | 95.7 | 78.1 | 80.5
RPMI 5 mM glucose + 10% dialyzed FBS, 1.71 µM | 89.5 | 78.8 | 87.3
RPMI 5 mM glucose + 10% dialyzed FBS, 5.12 µM | 89.5 | 76.9 | 104
RPMI 5 mM glucose + 10% dialyzed FBS, 15.4 µM | 91 | 82.3 | 93.2
RPMI 5 mM glucose + 10% dialyzed FBS, 46.1 µM | 82.8 | 77.5 | 75.1

CCN(C(=O)C/1=C(O)/C2=C(C=CC=C2Cl)N(C)C1=O)C3=CC=CC=C3
AUC of viability dose-response curve
Conditions | NOMO1 [3] | P12-Ichikawa [2] | SEM cells [1]
HPLM + 10% dialyzed FBS | 319 | 356 | 272
RPMI 5 mM glucose + 10% FBS | 306 | 322 | 258
RPMI 5 mM glucose + 10% dialyzed FBS | 328 | 308 | 250

cell viability [%]
Conditions | NOMO1 [6] | P12-Ichikawa [5] | SEM cells [4]
HPLM + 10% dialyzed FBS, 0.000781 µM | 95 | 93.7 | 79.9
HPLM + 10% dialyzed FBS, 0.00234 µM | 106 | 100 | 92.1
HPLM + 10% dialyzed FBS, 0.00702 µM | 97.6 | 98.1 | 99.3
HPLM + 10% dialyzed FBS, 0.0211 µM | 99.3 | 102 | 93.5
HPLM + 10% dialyzed FBS, 0.0632 µM | 87.4 | 97.9 | 84.6
HPLM + 10% dialyzed FBS, 0.19 µM | 84 | 93.2 | 61.8
HPLM + 10% dialyzed FBS, 0.569 µM | 96.6 | 95.9 | 62
HPLM + 10% dialyzed FBS, 1.71 µM | 34.9 | 77.6 | 25.8
HPLM + 10% dialyzed FBS, 5.12 µM | 12.5 | 31.8 | 9.79
HPLM + 10% dialyzed FBS, 15.4 µM | 3.29 | 2.09 | 3.62
HPLM + 10% dialyzed FBS, 46.1 µM | 3.67 | 3.36 | 3.31
RPMI 5 mM glucose + 10% FBS, 0.000781 µM | 80.5 | 90.3 | 88.2
RPMI 5 mM glucose + 10% FBS, 0.00234 µM | 88.8 | 97 | 90.7
RPMI 5 mM glucose + 10% FBS, 0.00702 µM | 93.4 | 98.7 | 99.6
RPMI 5 mM glucose + 10% FBS, 0.0211 µM | 93.8 | 105 | 97.6
RPMI 5 mM glucose + 10% FBS, 0.0632 µM | 96 | 88.8 | 89.5
RPMI 5 mM glucose + 10% FBS, 0.19 µM | 81 | 77.5 | 43
RPMI 5 mM glucose + 10% FBS, 0.569 µM | 90.6 | 82.7 | 53.8
RPMI 5 mM glucose + 10% FBS, 1.71 µM | 43.7 | 52.7 | 14.4
RPMI 5 mM glucose + 10% FBS, 5.12 µM | 15.8 | 25.4 | 5.29
RPMI 5 mM glucose + 10% FBS, 15.4 µM | 2.47 | 1.95 | 3.41
RPMI 5 mM glucose + 10% FBS, 46.1 µM | 2.24 | 2.3 | 3.37
RPMI 5 mM glucose + 10% dialyzed FBS, 0.000781 µM | 96.2 | 85.2 | 93.1
RPMI 5 mM glucose + 10% dialyzed FBS, 0.00234 µM | 89 | 91.3 | 80.1
RPMI 5 mM glucose + 10% dialyzed FBS, 0.00702 µM | 94 | 91.5 | 85.4
RPMI 5 mM glucose + 10% dialyzed FBS, 0.0211 µM | 97.2 | 96.4 | 97.8
RPMI 5 mM glucose + 10% dialyzed FBS, 0.0632 µM | 103 | 99.6 | 80.2
RPMI 5 mM glucose + 10% dialyzed FBS, 0.19 µM | 83.8 | 78.5 | 42.8
RPMI 5 mM glucose + 10% dialyzed FBS, 0.569 µM | 91.9 | 82.8 | 49.6
RPMI 5 mM glucose + 10% dialyzed FBS, 1.71 µM | 53.5 | 46.1 | 26.9
RPMI 5 mM glucose + 10% dialyzed FBS, 5.12 µM | 22 | 16.3 | 6.32
RPMI 5 mM glucose + 10% dialyzed FBS, 15.4 µM | 2.48 | 2.21 | 3.84
RPMI 5 mM glucose + 10% dialyzed FBS, 46.1 µM | 2.14 | 3.11 | 3.31

Cc1cc(Nc2nc(N[C@@H](C)c3ccc(F)cc3)c(C#N)cc2F)n[nH]1
AUC of viability dose-response curve
Conditions | NOMO1 [3] | P12-Ichikawa [2] | SEM cells [1]
HPLM + 10% dialyzed FBS | 414 | 396 | 367
RPMI 5 mM glucose + 10% FBS | 362 | 399 | 368
RPMI 5 mM glucose + 10% dialyzed FBS | 394 | 393 | 364

cell viability [%]
Conditions | NOMO1 [6] | P12-Ichikawa [5] | SEM cells [4]
HPLM + 10% dialyzed FBS, 0.000781 µM | 108 | 105 | 120
HPLM + 10% dialyzed FBS, 0.00234 µM | 101 | 101 | 106
HPLM + 10% dialyzed FBS, 0.00702 µM | 109 | 96.7 | 114
HPLM + 10% dialyzed FBS, 0.0211 µM | 113 | 105 | 110
HPLM + 10% dialyzed FBS, 0.0632 µM | 93.9 | 102 | 101
HPLM + 10% dialyzed FBS, 0.19 µM | 99.9 | 102 | 95
HPLM + 10% dialyzed FBS, 0.569 µM | 114 | 101 | 99.1
HPLM + 10% dialyzed FBS, 1.71 µM | 92.3 | 94.2 | 88.7
HPLM + 10% dialyzed FBS, 5.12 µM | 36.4 | 22.1 | 23.4
HPLM + 10% dialyzed FBS, 15.4 µM | 68.8 | 27.6 | 15
HPLM + 10% dialyzed FBS, 46.1 µM | 58.6 | 56.8 | 7.41
RPMI 5 mM glucose + 10% FBS, 0.000781 µM | 88.9 | 104 | 112
RPMI 5 mM glucose + 10% FBS, 0.00234 µM | 94.7 | 103 | 104
RPMI 5 mM glucose + 10% FBS, 0.00702 µM | 91.2 | 106 | 111
RPMI 5 mM glucose + 10% FBS, 0.0211 µM | 99.2 | 105 | 112
RPMI 5 mM glucose + 10% FBS, 0.0632 µM | 90.9 | 98.9 | 107
RPMI 5 mM glucose + 10% FBS, 0.19 µM | 81.2 | 100 | 112
RPMI 5 mM glucose + 10% FBS, 0.569 µM | 89.5 | 107 | 103
RPMI 5 mM glucose + 10% FBS, 1.71 µM | 83 | 93 | 93.4
RPMI 5 mM glucose + 10% FBS, 5.12 µM | 20.7 | 23 | 24.1
RPMI 5 mM glucose + 10% FBS, 15.4 µM | 36.1 | 44.7 | 13.3
RPMI 5 mM glucose + 10% FBS, 46.1 µM | 45.5 | 53.1 | 6.68
RPMI 5 mM glucose + 10% dialyzed FBS, 0.000781 µM | 79.8 | 96.7 | 104
RPMI 5 mM glucose + 10% dialyzed FBS, 0.00234 µM | 104 | 89.5 | 100
RPMI 5 mM glucose + 10% dialyzed FBS, 0.00702 µM | 104 | 104 | 106
RPMI 5 mM glucose + 10% dialyzed FBS, 0.0211 µM | 103 | 97.4 | 105
RPMI 5 mM glucose + 10% dialyzed FBS, 0.0632 µM | 96.8 | 95.6 | 93.9
RPMI 5 mM glucose + 10% dialyzed FBS, 0.19 µM | 97.5 | 104 | 101
RPMI 5 mM glucose + 10% dialyzed FBS, 0.569 µM | 98.7 | 87.5 | 100
RPMI 5 mM glucose + 10% dialyzed FBS, 1.71 µM | 91.1 | 84.4 | 76.9
RPMI 5 mM glucose + 10% dialyzed FBS, 5.12 µM | 28.3 | 34.2 | 23.9
RPMI 5 mM glucose + 10% dialyzed FBS, 15.4 µM | 36.1 | 45.4 | 16.7
RPMI 5 mM glucose + 10% dialyzed FBS, 46.1 µM | 55 | 54.8 | 6.42
